Results from patent US5326902A, “Oxyalkyne compounds, pharmaceutical compositions containing them and processes for preparing such compounds and compositions” (Gruenenthal GmbH, priority 1992, dated 1994).

Key:
[1] = target: T1, 5-lipoxygenase (Rattus norvegicus, UniProt P12527); assay: Inhibition of 5-lipoxygenase in RBL-1-cells; assay type: cell-based; conditions: 20 μM [14C]-arachidonic acid, 20 μM calcium ionophore A 23 187, 10 minutes
T1 construct: endogenous in cells; host or cells: RBL-1 cells (rat basophilic leukemia)
T1 sequence (P12527 1-673): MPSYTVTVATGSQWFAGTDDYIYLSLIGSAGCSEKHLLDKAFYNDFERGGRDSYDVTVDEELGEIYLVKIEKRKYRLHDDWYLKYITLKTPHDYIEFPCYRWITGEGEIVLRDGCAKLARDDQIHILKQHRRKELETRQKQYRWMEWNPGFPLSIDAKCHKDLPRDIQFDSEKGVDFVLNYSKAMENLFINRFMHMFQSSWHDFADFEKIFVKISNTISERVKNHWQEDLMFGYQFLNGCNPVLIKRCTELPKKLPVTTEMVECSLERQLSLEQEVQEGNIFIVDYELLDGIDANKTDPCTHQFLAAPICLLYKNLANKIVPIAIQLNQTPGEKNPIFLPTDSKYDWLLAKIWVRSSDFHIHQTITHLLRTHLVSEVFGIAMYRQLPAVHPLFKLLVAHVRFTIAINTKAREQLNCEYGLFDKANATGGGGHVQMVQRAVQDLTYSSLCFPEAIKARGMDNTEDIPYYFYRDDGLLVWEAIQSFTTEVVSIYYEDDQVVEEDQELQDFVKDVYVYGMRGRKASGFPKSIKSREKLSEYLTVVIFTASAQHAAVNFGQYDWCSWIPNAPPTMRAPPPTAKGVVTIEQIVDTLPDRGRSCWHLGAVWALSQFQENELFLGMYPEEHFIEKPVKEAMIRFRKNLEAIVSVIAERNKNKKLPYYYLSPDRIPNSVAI
Method: To determine the inhibition of 5-lipoxygenase, rat basophilic leukemia cells (RBL-1-cells) were cultured in vitro, harvested by centrifugation, washed with 50 mM potassium phosphate buffer of pH 7.4, and then suspended in this buffer at 1×10^7 cells/ml. Indomethacin (10 μM) and calcium chloride (2 mM) were added to 1 ml portions of this suspension, and then the mixture was incubated either in the presence of a compound according to the invention in a concentration range of from 0,1 μM to 100 μM or in the presence of a solvent (ethanol and/or dimethyl sulfoxide) for 3 minutes and thereafter with 20 μM of [^14 C]-arachidonic acid and 20 μM of calcium ionophore A 23 187 for 10 minutes. The reaction was stopped by adding 20 μl of glacial acetic acid, and then the mixture was extracted with ethyl acetate to isolate the metabolites of arachidonic acid formed by the enzymatic action of 5-lipoxygenase. These were separated by thin layer chromatography using a solvent mixture known to be suitable for lipoxygenase products [c.f. Jakschik et al., Biochem. Biophys. Res. Commun. 102, 624 (1981)].
The distribution of radioactivity among the different metabolites of arachidonic acid was measured using a TLC Linear Analyzer. By correlating the percentage amounts of the products formed under the action of 5-lipoxygenase (5HETE, isomers of LTB4) in the absence as well as in the presence of different concentrations of compounds according to the invention, the IC50 -values, i.e. the concentrations which cause a 50% inhibition of 5-lipoxygenase, were determined graphically from semilogarithmic plots.

[2] = target: T1, 5-lipoxygenase; assay: Inhibition of Cell-free 5-lipoxygenase from RBL-1-cells (polarographic, 10,000 × g supernatant); assay type: biochemical; conditions: 10,000 × g supernatant of homogenized RBL-1-cells; arachidonic acid 75 μM; 35° C.; calculated IC50
Method: Cell-free 5-lipoxygenase was polarographically measured from 10,000 × g supernatant of homogenized rat basophilic leucemia cells (M. Haurand & L. Flohe in Biol. Chem. Hoppe-Seyler 369, 133 to 142 (1988)). After preincubation of the 10,000 × g supernatant with arachidonic acid (75 μM), ATP (adenosine triphosphate; 4 mM), reduced glutathione (4 mM), and either a compound according to the invention (0.1 to 100 μM) or a solvent (ethanol and/or dimethyl sulfoxide) at 35° C. for 5 minutes, the lipoxygenase reaction was initiated by addition of calcium chloride (3 mM) and simultaneously recorded.
The activity of 5-lipoxygenase was determined from the difference in the pO2 -decrease before and after addition of calcium chloride. The evaluation included the initial rate of the reaction after the lag-phase as well as the duration of the lag-phase. In the concentration range of from 3 to 50 μM, the test substances induced lag-phases between 20 and 60 seconds.

[3] = test system: bronchoconstriction elicited by ovalbumin; assay: Allergen-induced bronchoconstriction in guinea pigs (Konzett-Rossler); assay type: in vivo, guinea pig; conditions: Cavia porcellus, 1 h; oral, 60 minutes before ovalbumin (0.2 mg/kg intravenous); passively sensitized guinea pigs; read-out: ED40-Value (40% average inhibition of the bronchoconstriction elicited by ovalbumin)
Method: The anti-asthmatic effect of compounds according to the invention was tested in anesthetized and ventilated guinea pigs. To induce an asthmatic reaction, the animals were passively sensitized by a single intraperitoneal injection of anti-ovalbumin serum. After 48 hours, the asthmatic reaction was elicited by intravenous challenge with 0.2 mg/kg of ovalbumin. The immediately resulting bronchoconstriction was measured as an increase in intratracheal pressure. Effects caused by histamine, serotonin and sympathic counterreaction were eliminated by intravenous pretreatment with 2.15 mg/kg of mepyramine, 46.4 μg/kg of propranolol, 4.64 mg/kg of atropine and 1 mg/kg of methysergide, all administered 5 minutes before challenge. Compounds according to the invention were administered orally 60 minutes before the administration of ovalbumin. The following […] for the inhibition of the bronchoconstriction elicited by ovalbumin, i.e. the effective doses causing a 40% average inhibition of the bronchoconstriction, were determined: […]

[4] = test system: 5-lipoxygenase; assay: Inhibition of 5-lipoxygenase in Rat Blood After Oral Administration (ex vivo iLTB4-formation); conditions: 21.5 mg/kg oral, male Wistar rats, one hour after administration
Method: The bioavailability of the compounds of formula I as 5-lipoxygenase inhibitors was characterized by means of an ex vivo biochemical assay method described by Tateson et al. in Brit. J. Pharmacol. 94, 528 (1988): A compound of formula I was orally administered to male rats (Wistar strain) at a dose of 21.5 mg/kg. After lethal CO2 -narcosis one hour after administration, the rats were bled by heart puncture with added heparin as an anticoagulant. Aliquots of the whole blood were incubated at 37° C. for 30 minutes in a water bath with calcium ionophore A 23 187 at an end concentration of 15 μg/ml. At the end of the incubation, the samples were centrifuged, and the concentration of the immunoreactive LTB4 (iLTB4) in aliquots of cell-free plasma was determined by radioimmunoassay (3H-LTB4 -RIA, Amersham). To enable calculation of the inhibition in percent of ex vivo iLTB4 -formation in whole rat blood treated with a compound according to the invention, rats orally treated with an appropriate vehicle solution were included in all experiments, and aliquots of their blood were run in parallel and were processed in the same way as described. The average iLTB4 -content of the plasma of the vehicletreated rats served as a 100% value. The activity in percent of the ex vivo iLTB4 -formation after oral administration of a compound according to the invention was calculated by dividing the average value of the iLTB4 -contents in ng iLTB4 /ml of the group treated with a compound according to the invention by the average value of the iLTB4 -contents in ng iLTB4 /ml of the vehicle treated group and subsequent multiplication by a factor of 100. The respective inhibition in percent was calculated by subtracting the activity in percent from 100.

[5] = target: T2, 12-lipoxygenase (Homo sapiens, UniProt P18054); assay: Inhibition of 12-lipoxygenase in human blood; assay type: cell-based; design: 3 ml aliquots of human whole blood treated with heparin; from tissue; host or cells: human whole blood (heparinized); conditions: human whole blood; calcium ionophore A 23 187 15 μg/ml; 37° C., 30 minutes; 12-HETE by HPLC
T2 sequence (P18054 1-663): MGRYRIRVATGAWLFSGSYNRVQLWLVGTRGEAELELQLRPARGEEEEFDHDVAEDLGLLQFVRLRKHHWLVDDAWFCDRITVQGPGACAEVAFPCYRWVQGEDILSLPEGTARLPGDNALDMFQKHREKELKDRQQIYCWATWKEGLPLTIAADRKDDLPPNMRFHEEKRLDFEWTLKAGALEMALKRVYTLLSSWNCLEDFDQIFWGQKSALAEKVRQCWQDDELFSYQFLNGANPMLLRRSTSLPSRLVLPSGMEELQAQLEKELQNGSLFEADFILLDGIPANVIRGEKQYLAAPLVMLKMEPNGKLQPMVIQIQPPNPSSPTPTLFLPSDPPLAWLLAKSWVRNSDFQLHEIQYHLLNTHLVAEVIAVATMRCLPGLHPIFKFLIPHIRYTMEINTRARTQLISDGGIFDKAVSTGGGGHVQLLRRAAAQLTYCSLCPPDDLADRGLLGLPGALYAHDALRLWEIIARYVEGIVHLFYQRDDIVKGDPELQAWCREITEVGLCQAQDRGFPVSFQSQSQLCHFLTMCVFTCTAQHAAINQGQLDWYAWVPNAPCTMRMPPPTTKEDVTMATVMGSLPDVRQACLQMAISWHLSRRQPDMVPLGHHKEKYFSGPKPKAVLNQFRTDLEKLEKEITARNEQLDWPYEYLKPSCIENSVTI
Method: 3 ml aliquots of human whole blood treated with heparin were incubated either with a compound according to the invention or with dimethyl sulfoxide at 37° C. for 5 minutes. Then 12-lipoxygenase was activated by addition of calcium ionophore A 23 187 (15 μg/ml blood). After incubation at 37° C. for 30 minutes and centrifugation, cell-free plasma was obtained. Plasma protein was precipitated by addition of 2 ml of ethanol per ml of plasma and then separated by centrifugation. After adjusting the ethanol content in the supernatant with water to 10% by volume, the 12-lipoxygenase product 12-HETE was enriched by solid phase extraction using an octadecyl silica column. The methanolic eluate was evaporated to dryness, diluted in 40% by volume of methanol, and the 12-HETE-content was determined by HPLC. The IC50 -values of the compounds of the invention prepared according to Examples 1, 8 and 16 were 2, 4 and 3 μmolar, respectively.

IC50 [1]	IC50 [2]	IC50 [5]	Structure (SMILES)	ED40 [3]	Inhibition [%] of ex vivo iLTB4-formation [4]
3 µM	3 µM	–	NC(=O)N(O)Cc1ccc(C(O)C#Cc2ccc(F)cc2)cc1 (racemic) [Example 25, N-Hydroxy-N-[4-[1-hydroxy-3-(4-fluorophenyl)prop-2-yn-1-yl]benzyl]urea]	10 mg/kg	–
7 µM	8 µM	4 µM	NC(=O)N(O)Cc1ccc(C(O)C#Cc2ccccc2)cc1 (stereo not shown) [Example 8, N-Hydroxy-N-[4-[1-hydroxy-3-phenyl-prop-2-yn-1-yl]benzyl]urea]	–	65%
3 µM	6 µM	3 µM	CC(=O)N(O)Cc1ccc(C(O)C#Cc2cccs2)cc1 (stereo not shown) [Example 16, N-Hydroxy-N-[4-[1-hydroxy-3-(2-thienyl)prop-2-yn-1-yl]benzyl]acetamide]	–	–
